Test results taken from US20240325353A1, “COMPOUND FOR TREATMENT OF COGNITIVE DISORDERS” (Syndesi Therapeutics SA, priority 2021, published 2024).

What was measured:
[1] = anti-convulsant activity in vivo
SV2A [2] = target: T1, SV2A (Rattus norvegicus, UniProt Q02563); test: in vivo SV2A receptor occupancy in rats; conditions: ip, 0.1 mg/kg i.p., 60 minutes post administration
T1 construct: from tissue; host or cells: brain of living rats

[3] = rodent preclinical cognitive deficit models; format: in vivo; conditions: range of rodent preclinical cognitive deficit models
[4] = test system: functional connectivity of brain networks (DMN, visual network); test: resting state BOLD-fMRI functional connectivity; format: in vivo, human; conditions: post dose versus baseline
Experimental: This example describes the fMRI analysis performed in the context of the study in Example 3. Simultaneous with the dynamic PET described in example 3 above, MRI data were acquired using a resting state BOLD-fMRI (rs-fMRI) protocol. In the following section, the methodology and results of the analysis of these MRI data are presented.
Resting state BOLD-fMRI data were acquired according to the following protocol: For the analysis of the rs-fMRI scans, all data were converted to the BIDS format for processing with the CONN toolbox (release 19c).
The following preprocessing steps were performed: • Slice timing correction: Temporal misalignment between different slices of the rs-fMRI scans, due to the sequential nature of the fMRI acquisition, is corrected by applying an appropriate timeshift to match the actual acquisition time • Realignment: RS-fMRI data were realigned where all scans were coregistered to the first scan of the first session. This way, potential susceptibility distortion-by-motion interactions were also addressed by estimating the derivatives of the deformation field with respect to head movement, and resampling the functional data to match the deformation field of the reference image. • Outlier detection: Potential outlier scans were identified from the observed global BOLD signal and the amount of subject-motion in the scanner. […]

SV2A [5] = target: SV2A (Homo sapiens, UniProt Q7L0J3); test: SV2A binding in vitro, displacement of levetiracetam
SV2A (Homo sapiens, UniProt Q7L0J3), sequence (Q7L0J3 whole entry, species assumed): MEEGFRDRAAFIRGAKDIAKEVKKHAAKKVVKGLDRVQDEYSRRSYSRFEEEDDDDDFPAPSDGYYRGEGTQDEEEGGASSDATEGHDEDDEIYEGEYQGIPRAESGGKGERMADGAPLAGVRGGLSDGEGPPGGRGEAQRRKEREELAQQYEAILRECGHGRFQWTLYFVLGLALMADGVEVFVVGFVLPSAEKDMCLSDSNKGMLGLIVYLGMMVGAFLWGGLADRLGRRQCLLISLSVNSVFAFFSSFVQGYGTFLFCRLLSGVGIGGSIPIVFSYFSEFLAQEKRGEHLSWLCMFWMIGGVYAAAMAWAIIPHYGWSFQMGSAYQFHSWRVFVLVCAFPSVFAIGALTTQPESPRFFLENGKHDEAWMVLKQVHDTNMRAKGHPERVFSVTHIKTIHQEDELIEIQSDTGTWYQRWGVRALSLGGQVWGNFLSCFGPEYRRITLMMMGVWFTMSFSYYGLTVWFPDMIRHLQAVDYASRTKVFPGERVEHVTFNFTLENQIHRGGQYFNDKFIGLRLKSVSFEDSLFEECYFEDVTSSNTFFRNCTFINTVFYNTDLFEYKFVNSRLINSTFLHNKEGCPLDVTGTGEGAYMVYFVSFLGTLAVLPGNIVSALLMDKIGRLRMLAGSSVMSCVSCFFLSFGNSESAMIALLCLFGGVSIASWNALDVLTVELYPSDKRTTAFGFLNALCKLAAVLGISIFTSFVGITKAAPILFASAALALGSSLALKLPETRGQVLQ

T1 sequence (Q02563 whole entry): as the sequence (Q7L0J3 whole entry, species assumed) above, with D53E, S62A, T71A, E144D, A154T, G440S, S482A, I572V, M634L counted along it

- receptor occupancy at 0.1 mg/kg (SV2A [2]): 20 to 50%
- affinity of binding to SV2A (levetiracetam site) (SV2A [5]): high affinity
- displacement of the binding of levetiracetam to SV2A (SV2A [5]; in vitro): competitively displaces
SMILES: O=C1C[C@H](c2cc(F)c(F)c(F)c2)CN1Cn1ncnc1Cl [compound of example 1, (4R)-1-[(5-chloro-1H-1,2,4-triazol-1-yl)methyl]-4-(3,4,5-trifluorophenyl)pyrrolidin-2-one]
- anti-convulsant activity [1]: without anti-convulsant activity
- effect on the anti-convulsant effect of levetiracetam [1]: competitively inhibits
- pro-cognitive effects [3]: possesses pro-cognitive effects
- connectivity in the DMN (seed IC12) ([4]; low doses (all four individuals at 1 and 2 mg)): modulate and enhance connectivity in the DMN
- connectivity between IC18 (Visual network) and auditory network ([4]; relatively low occupancy levels): increased
